Results from article PMC8263017, “Cryo-EM Determination of Eravacycline-Bound Structures of the Ribosome and the Multidrug Efflux Pump AdeJ of Acinetobacter baumannii” (mBio, 2021).

Key:
[1] = molecular target: T1, AdeJ multidrug efflux pump (Acinetobacter baumannii, UniProt Q2FD94); assay: single-particle cryo-EM structure ([…] A); conditions: 10 uM AdeJ-nanodisc with 20 uM eravacycline (dihydrochloride), 1 h; distal drug-binding site of the binding-state protomer, one molecule per trimer; no Mg2+ seen at the site
T1 construct: full-length, 1,058 residues (1,046 built per protomer); N-terminal 6xHis tag (pET15b); expressed in E. coli BL21(DE3) delta-acrB; DDM-purified, reconstituted in MSP 1E3D1 lipidic nanodiscs; homotrimer

[2] = molecular target: Acinetobacter drug efflux (Ade)J multidrug efflux pump of A. baumannii Ab0057 (Acinetobacter baumannii Ab0057) (UniProt Q2FD94); assay: cryo-EM structure; single-particle cryo-EM of 10 μM AdeJ in lipidic nanodiscs, incubated with 20 μM eravacycline for 1 h; two classes in one sample (apo-AdeJ trimer and AdeJ-Era trimer); 20 mM Tris-HCl pH 7.5, 100 mM NaCl

Compound	single-particle cryo-EM structure (2.86 A) [1]	stoichiometry N [2]
CN(C)[C@@H]1C(=O)C(C(N)=O)=C(O)[C@@]2(O)C(=O)C3=C(O)c4c(O)c(NC(=O)CN5CCCC5)cc(F)c4C[C@H]3C[C@@H]12 [eravacycline]	large density corresponds to the bound Era drug located at the distal multidrug-binding site	
Acinetobacter drug efflux (Ade)J multidrug efflux pump of A. baumannii Ab0057 (from UniProt Q2FD94 1-1058) (natural protein)		3
